Measured values: patent publication US6750221B1 (BASF Aktiengesellschaft, priority 1999, dated 2004)
Like-named read-outs stand apart in the source and are kept apart here.

Key:
[1] = target: T1, h5-HT5 receptor (Homo sapiens, UniProt P47898); test: [3H]-5-CT binding competition on h5-HT5 membranes
T1 construct: expressed in transfected cells; host or cells: HEK293 cells (CHO cells obtained analogously), pcDNA3 plasmid, neomycin selection; membranes prepared
Protocol: Membranes obtained according to Example 2 (200 μl) were incubated in the presence of 2 nM [^3H]-5-CT in a total volume of 600 μl in buffer B with increasing concentrations of selected compounds. After an incubation time of 75 min at 30° C., the samples were filtered at 4° C. through GF/B filters embedded in 0.3% polyethyleneimide using buffer B. The filters were washed with 9 ml of buffer B. The radioactivity retained on the filters was determined as in Reference Example 3.
According to Reference Example 4, the binding affinities of serotoninergic compounds were determined by means of [^3H]-5-CT binding competition.

[2] = system: male Long Evans rats; test: Neuroprotective action: MCA occlusion (experimental cerebral stroke); format: in vivo, rat; conditions: 90 min after MCA occlusion, infarct volume 22 hours after occlusion
Protocol: The experiments were performed on male Long Evans rats. Under nitrous oxide-assisted halothane anesthesia, the middle cerebral artery (MCA) was severed and permanently ligated distally, as described in the literature. The resulting infarct volume was determined 22 hours after MCA occlusion.

[3] = system: hippocampal neurons; test: Neuroprotective action: experimental brain trauma of the rat (lateral fluid percussion); format: in vivo; conditions: 20 + 20 mg/kg i.p., 15 + 120 min post trauma; 14 days after traumatization
Text: The lateral fluid percussion method (McIntosh TK, Neuroscience 28, 233 244, 1989) was used in order to produce an experimental brain trauma in the rat which is suitable for the testing of potential neuroprotective substances. By means of this technique, controlled and consistent tissue damage was produced underneath the site of the impact, which included the neocortex, the hippocampus and the thalamus.
The right parietotemporal region of the skull was exposed in the anesthetized rat. The skull was trepanned through the parietal cortex (about 4 mm diameter), the dura being left intact. A Luer lock attachment was fixed to the skull using dental cement through the trepanation. After the dental cement had hardened, the rat was connected to the fluid percussion apparatus according to McIntosh. This consisted of a cylinder filled with 0.9% NaCl solution, one end of the cylinder being closed by a piston, while the other end was connected via a pressure transducer to a Luer lock attachment. […]
The rats were sacrificed 14 days after traumatization for removal of the brain. […] For the quantification of the neuronal damage, cell counts were carried out bilaterally in the rostral hippocampus; the proportion of intact cells in the dentate gyrus was determined on the traumatized (right) and the (left) opposite side. […]

[4] = target: T1, h5-HT5 receptor; test: Saturation binding of [3H]-5-CT to membranes of h5-HT5 receptor-expressing cells; conditions: 30° C., 90 min, read-out: dissociation constant Kd
Protocol: The gene coding for the human 5-HT5 receptor was isolated from human tissues in a known manner by means of 3′-5′-RT-PCR (RACE system, Boehringer Mannheim). The gene sequence was then inserted into a plasmid carrying the neomycin resistance gene (pcDNA3; Invitrogen, Germany) and amplified in E. coli according to the manufacturer's instructions. A preparation of the resulting plasmid was mixed with Lipofectamin® (Gibco Life-Sciences, Germany), and HEK293 cells were incubated with a thin layer of this transfection mixture in petri dishes (2.5 cm). The transfection mixture was then replaced by neomycin-containing culture medium. […]
The methodology is essentially known (Ress S. et al., FEBS Letters 335:242-246 (1994)). […] The filters were washed at 4° C. with 9 ml of buffer B. The radioactivity retained on the filters was measured by means of liquid scintillation counting, 5 ml of Ultima-Gold (Packard) being used.
The saturation parameters of the [^3H]-5-CT binding was determined both by nonlinear regression analysis and from linear plots using the SigmaPlot software (Jandel Scientific, Germany). Competition curves were set up in which the radioactive binding is expressed as a percentage proportion of the total binding. Half maximal inhibition constants IC50 and Hill-coefficients (nH) were determined by means of nonlinear regression analysis. […]

[5] = 2 + 1 mg/kg + mg/kg/h i.v. bolus then infusion

T1 sequence (P47898 whole entry): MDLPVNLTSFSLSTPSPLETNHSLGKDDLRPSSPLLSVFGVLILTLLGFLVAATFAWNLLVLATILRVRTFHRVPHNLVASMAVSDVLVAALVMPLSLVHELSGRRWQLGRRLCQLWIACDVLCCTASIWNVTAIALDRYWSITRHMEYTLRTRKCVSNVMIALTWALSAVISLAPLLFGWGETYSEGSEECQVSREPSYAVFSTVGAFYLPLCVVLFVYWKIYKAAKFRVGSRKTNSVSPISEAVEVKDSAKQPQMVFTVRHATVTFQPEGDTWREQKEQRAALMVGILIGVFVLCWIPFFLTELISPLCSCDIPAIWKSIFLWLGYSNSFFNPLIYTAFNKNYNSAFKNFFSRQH

Structure (SMILES) | Ki [1] [nM] | Infarct volume, % of the control [mean value ± SD] [2, 5] | Quotient m ± sm of neuron count of the trauma side to the contralateral side (hippocampus) [3] | also measured
CN1CCc2c(sc3ncn(CCN4CCN(c5cccc(C(F)(F)F)c5)CC4)c(=O)c23)C1 [Compound A, 3,4,5,6,7,8-Hexahydro-7-methyl-3-[2-(4-(3-trifluoromethyl-phenyl)piperazin-1-yl)ethyl]pyrido[4′,3′:4,5]thieno[2,3-d]-pyrimidin-4-one] | 661 | – | – | Infarct volume, % of the control [mean value ± SD] ([2]; 4 + 2 mg/kg + mg/kg/h i.v. bolus then infusion): 62 ± 18 % of the control
CCCN(CCC)C1CCc2cccc(O)c2C1 (stereo not drawn) [R(+)-8-OH-DPAT, 8-hydroxy-2-(di-n-propylamino)tetralin, reference compound] | – | 72 ± 32 % of the control | – | –
NCCc1c[nH]c2ccc(C(N)=O)cc12 [Compound 5-CT, 5-carboxamidotryptamine, reference compound] | – | – | – | Ki ([1]; 2 nM [3H]-5-CT, 75 min at 30° C., Ki=IC50/(1+C/Kd)): 1.44 nM; Kd [4]: 0.57 nM

Second part, led by results:

Ki [1] [nM] | Structure (SMILES) | Infarct volume, % of the control [mean value ± SD] [2, 5] | Quotient m ± sm of neuron count of the trauma side to the contralateral side (hippocampus) [3] | also measured
237 | COc1ccc2cccc(N3CCN(CCn4cnc5sc6c(c5c4=O)CCN(C)C6)CC3)c2c1 [Compound C] | – | 0.56 ± 0.05 | Infarct volume, % of the control ([2]; 1 + 0.5 mg/kg + mg/kg/h i.v. bolus then infusion): 67 % of the control
124 | CCN1CCc2sc3ncn(CCN4CCN(c5cccc6ccccc56)CC4)c(=O)c3c2C1 [Compound B, 3,4,5,6,7,8-Hexahydro-6-ethyl-3-[2-(4-(1-naphthyl)piperazin-1-yl)ethyl]pyrido[3′,4′:4,5]thieno[2,3-d]pyrimidin-4-one] | 66 ± 19 % of the control | 0.64 ± 0.03 | –
